Experimental data reported in patent publication US20220324897A1, “CRYSTAL FORM OF SGLT INHIBITOR AND APPLICATION THEREOF” (SHANDONG DANHONG PHARMACEUTICAL CO., LTD., priority 2019, published 2022).
Each block holds one compound with its values, some of them ahead of it.

Legend:
SD rats = assay: Pharmacodynamic study in rats OGTT model; format: in vivo, rat; details: for OGTT Blood glucose levels AUC0-2 hr: SD rats, mean ± standard error
Description: SD rats, male, aged 7-8 weeks, purchased from Zhejiang Weitonglihua Experimental Animal Technology Co. Ltd. are maintained in a special pathogen-free environment, with 4 rats in a single ventilation cage. Beddings and water in all cages are sterilized prior to use. All animals can freely obtain a standard certified commercial laboratory diet.
After the animals are adapted to the environment for one week, they are fasted for 16 hours in a metabolic cage, and randomly divided into different groups according to fasting blood glucose and body weight. The animals are administered with a drug or solvent (2 mL/kg), followed by immediately administration of 50% glucose solution (2 g/kg, 4 mL/kg), 2 hours after the administration of glucose solution, the feed is recovered, and blood samples are collected at 0 min, 15 min, 30 min, 45 min, 60 min, and 120 min for blood glucose testing. All values are expressed as average values. Statistical analysis is carried out using Graphpad Prism 6 double factor variance analysis and evaluated with Tukey's multiple comparison tests. P values less than 0.05 are considered to have statistical significance.

[1] = Solid stability test of crystal form A; format: physicochemical
Description: Each part is placed at the bottom of a HPLC vial and spread into a thin layer. Samples placed in a constant temperature and constant humidity box at 60° C./75% RH and samples placed in a 92.5% RH dryer are sealed with a sealing film on the bottle mouth, and some small holes are made in the sealing film to ensure that the sample can be brought into full contact with the ambient air. Samples placed at 60° C., or under lights or shading conditions are tightly capped (wherein the samples under shading conditions are packaged with a tin foil paper).

[2] = Hygroscopicity study by dynamic vapor sorption (DVS); format: physicochemical; details: 25° C. and 80% RH
Description: Dynamic Vapor Sorption (DVS) Method of the Present Invention
Instrument Model: […] Advantage-1 dynamic vapor adsorber
Test conditions: Sample (10-30 mg) is placed in the DVS sample tray for testing.
Detailed DVS parameters are as follows:
Balance: dm/dt=0.002%/min (shortest: 10 min, longest: 180 min)
RH (%) test step range: 0-95-0
Hygroscopicity evaluation and classification are as follows:
SMS DVS Advantage Dynamic Vapor Sorption Intrinsic

[3] = Shading lights, test at the same time with the visible lights + ultraviolet lights group
[4] = Shading lights, test at the same time with the visible lights group
[5] = Visible lights + Ultraviolet lights, illuminance reaches 200 W · hrs/m^2
[6] = Visible lights, illuminance reaches 1.2E+06 Lux · hrs

Structure (SMILES): CCOc1ccc(Cc2cc([C@@H]3O[C@H](SC)[C@@H](O)[C@H](O)[C@H]3O)ccc2Cl)cc1 [Sotagliflozin, reference compound]
- OGTT Blood glucose levels AUC0-2 hr (SD rats; 3 mg/kg): 1050 mmol/L/min

- Crystal form ([1]; 0 day): Crystal form A
- Purity (area %) ([1]; 0 day): 96.48 area %
- Crystal form ([1]; 60° C., 5 days): Crystal form A
- Purity (area %) ([1]; 60° C., 5 days): 96.38 area %
- Crystal form ([1]; 60° C., 10 days): Crystal form A
- Purity (area %) ([1]; 60° C., 10 days): 96.41 area %
- Crystal form ([1]; 60° C./75% RH, 1 months): Crystal form A
- Purity (area %) ([1]; 60° C./75% RH, 1 months): 96.31 area %
- Crystal form ([1]; 60° C./75% RH, 2 months): Crystal form A
- Purity (area %) ([1]; 60° C./75% RH, 2 months): 96.39 area %
- Crystal form ([1]; 60° C./75% RH, 3 months): Crystal form A
- Purity (area %) ([1]; 60° C./75% RH, 3 months): 96.37 area %
- Crystal form ([1]; 92.5% RH, 5 days): Crystal form A
- Purity (area %) ([1]; 92.5% RH, 5 days): 96.41 area %
- Crystal form ([1]; 92.5% RH, 10 days): Crystal form A
- Purity (area %) ([1]; 92.5% RH, 10 days): 96.47 area %
- Crystal form [1, 3]: Crystal form A
- Purity (area %) [1, 3]: 96.43 area %
- Crystal form [1, 4]: Crystal form A
- Purity (area %) [1, 4]: 96.44 area %
- Crystal form [1, 5]: Crystal form A
- Purity (area %) [1, 5]: 95.75 area %
- Crystal form [1, 6]: Crystal form A
- Purity (area %) [1, 6]: 96.29 area %
- Hygroscopicity classification [2]: almost no hygroscopicity
- ΔW, weight gain caused by hygroscopicity [2]: 0.1483%
Structure (SMILES): CCc1ccc([C@@H]2O[C@H](SC)[C@@H](O)[C@H](O)[C@H]2O)cc1Cc1ccc(C2=CCC(F)(F)CC2)cc1
- Solid stability, conclusion ([1]; all tested conditions of Table 3): Conclusion: The crystal forms A of compound of formula (I) has good stability.
- OGTT Blood glucose levels AUC0-2 hr (SD rats; 1 mg/kg): 1070 mmol/L/min
- OGTT Blood glucose levels AUC0-2 hr (SD rats; 3 mg/kg): 977 mmol/L/min
- OGTT Blood glucose levels AUC0-2 hr (SD rats; 10 mg/kg): 881 mmol/L/min
- Effect on blood glucose level, AUC0-2hr, conclusion (SD rats; rat OGTT, in 2 hours): effectively and significantly reduce the blood glucose level
